Assay results taken from publication PMC12505664, “Enflicoxib for the long-term management of canine osteoarthritis—External validation of a population pharmacokinetic model in dogs with osteoarthritis” (Frontiers in Veterinary Science, 2025).
“And” between values parts separate entries of the source, which are not always exact repeats. Identical values can stand only once. Like-named read-outs stand apart in the source and are kept apart here.

What was measured:
canine osteoarthritis = tested on: canine osteoarthritis; parameters: method as in Salichs et al., Vet Rec. 2022; details: ref Salichs et al., Vet Rec. 2022, cited from earlier work; for Number of animals presenting AEs (%): Emesis or nausea: AEs classified A, B or O; for Emesis and nausea: Number of events: AEs related to the GI system
[1] = Plasma levels of enflicoxib and pyrazol metabolite in the 6-month field clinical study (HPLC-MS/MS); format: in vivo, client-owned dogs with OA; details: for Mean plasma level: oral 8 mg/kg then 4 mg/kg weekly
Method: A prospective, multisite, blinded, randomized, placebo-controlled, parallel-group field study was performed in accordance with Good Clinical Practice standards ([16]). The study aimed to confirm the safety and efficacy of enflicoxib treatment of pain and inflammation associated with naturally occurring canine OA in dogs of any breed and sex treated for 6 months. The protocol was approved by the regulatory authorities of both Portugal and Hungary. Written informed consent was obtained from all dog owners prior to enrolment of their dogs. Dogs remained under the care of their owners at home throughout the study.
Before enrolment, all dogs underwent a physical examination, and blood and urine samples were taken. After enrollment, dogs were randomized in a predefined enflicoxib:placebo ratio of 3:1. Enflicoxib was dosed orally at weekly intervals, with an initial dose of 8 mg/kg, followed by once-a-week maintenance doses of 4 mg/kg for a total of 26 weeks. Dogs in the enflicoxib group received Daxocox® tablets (Ecuphar/Animalcare group), while dogs in the placebo group received the same formulation without the active ingredient under the same posology (number of tablets and dosing interval). […] No positive control was included due to difficulties in maintaining blinding with products under different posology during the entire follow-up period.
Two blood samples for popPK analysis were collected from all animals enrolled in the study one on day 44(±2 days)/1.5 months, (similar to the last sample taken in the previous clinical studies), after clinical assessment of pain and lameness and prior to treatment administration and another one at the end of the study on day 189/6 months (±2 days), or individual premature study termination day. Day 189 corresponds to the trough concentration after the 27th weekly administration (PK sample taken at the end of the weekly dosing interval). Meanwhile, day 44 corresponds to a PK sample obtained 2 days after the 7th weekly administration. The veterinary practices had the necessary resources and adequate freezing equipment for the long-term storage of plasma samples. Blood samples were collected into potassium-3-ethylenediaminetetraacetic acid (K3EDTA) labeled tubes, which were immediately centrifuged at ~2,500g for 10 min (at +4 °C whenever possible) to obtain plasma. Once received, plasma was transferred into two labeled propylene tubes (aliquots 1 and 2). Each plasma aliquot was stored frozen at a nominal temperature of −20 (±2) °C until shipment to the Laboratory of analysis Welab Barcelona (Parc Científic de Barcelona, C/Baldiri Reixac 4-12, 08028, Barcelona). The maximum storage time for the samples was 376 days at nominally −20 °C/−80 °C. Considering the long-term stability of enflicoxib and its metabolite in dog plasma samples stored at −20 °C, which spans a minimum of 402 days, the stability of the study samples was guaranteed for the entire duration of the study. Samples were analyzed without information on the treatment allocation (laboratory-blinded study).
Enflicoxib and pyrazol metabolite plasma levels were measured by a previously fully validated high-performance liquid chromatography (HPLC)-method coupled with tandem mass spectrometry (MS/MS) detection as described in Homedes et al. ([4]).

[2] = parameters: method as in PMID 34854245; details: popPK model, cited from earlier work
dogs with OA = test: Safety assessment in the field clinical study (hematology, biochemistry, urine, adverse events); format: in vivo, client-owned dogs with OA; details: 6 months weekly treatment
Method: To assess safety, blood samples for hematology and biochemistry, as well as urine samples, were repeated on days 44 and 189. The following hematological and biochemical parameters were determined: red blood cell (RBC) count, white blood cell (WBC) total and differential count, platelet (thrombocyte) count and estimate, hematocrit, hemoglobin, and reticulocytes. Amylase, albumin, alkaline phosphatase, alanine-aminotransferase (ALT), aspartate-aminotransferase (AST), calcium, cholesterol, creatinine, creatine kinase, globulin, glucose, γ-Glutamyltransferase (γ-GT), magnesium, phosphorus, potassium, sodium, total bilirubin, total protein, and urea.
Urine samples were analyzed for blood/erythrocytes/hemoglobin, glucose, ketone bodies, protein, leukocytes, nitrite, specific weight, pH value, bilirubin, and urobilinogen.
Safety was also assessed by recording any adverse events (AEs) that occurred during the study, regardless of their nature, severity, or whether they were product-related or not.

[3] = parameters: method as in PMID 34160092; details: cited from earlier work
Beagle dogs = tested on: Beagle dogs; parameters: method as in PMID 34082759; details: cited from earlier work
[4] = interindividual variability as % CV
[5] = parent, typical value at 9.9 kg

NS(=O)(=O)c1ccc(N2N=C(C(F)(F)F)CC2c2ccc(F)cc2F)cc1 (stereo not shown) [Enflicoxib]
Number of animals presenting AEs (%): Emesis or nausea (canine osteoarthritis; Enflicoxib 2 mg/kg group n=60): 3 (5.0)
Emesis and nausea: Number of events (canine osteoarthritis; Enflicoxib 2 mg/kg group n=60): 3
Diarrhoea / pasty stools: Duration range (canine osteoarthritis; Enflicoxib 2 mg/kg group n=60): 2 to 8 days
Diarrhoea / pasty stools: Mean duration (canine osteoarthritis; Enflicoxib 2 mg/kg group n=60): 5.6 days
Diarrhoea / pasty stools: Number of events (canine osteoarthritis; Enflicoxib 2 mg/kg group n=60): 3
Diarrhoea / pasty stools: Treatment needed (canine osteoarthritis; Enflicoxib 2 mg/kg group n=60): 1
Emesis and nausea: Mean duration (canine osteoarthritis; Enflicoxib 2 mg/kg group n=60): 3 days
Emesis and nausea: Treatment needed (canine osteoarthritis; Enflicoxib 2 mg/kg group n=60): 0
Number of animals presenting AEs (%): Abdominal pain (canine osteoarthritis; Enflicoxib 2 mg/kg group n=60): 0
Number of animals presenting AEs (%): Acute renal failure (canine osteoarthritis; Enflicoxib 2 mg/kg group n=60): 0
Number of animals presenting AEs (%): Apathy (canine osteoarthritis; Enflicoxib 2 mg/kg group n=60): 1 (1.7)
Number of animals presenting AEs (%): Constipation (canine osteoarthritis; Enflicoxib 2 mg/kg group n=60): 0
Number of animals presenting AEs (%): Diarrhoea or pasty stools (canine osteoarthritis; Enflicoxib 2 mg/kg group n=60): 4 (6.7)
Number of animals presenting AEs (%): Increased salivation (canine osteoarthritis; Enflicoxib 2 mg/kg group n=60): 0
Number of animals presenting AEs (%): Polydipsia (canine osteoarthritis; Enflicoxib 2 mg/kg group n=60): 0
Number of animals presenting AEs (%): Total (canine osteoarthritis; Enflicoxib 2 mg/kg group n=60): 6 (10%)
Number of animals presenting AEs (%): Weight loss (canine osteoarthritis; Enflicoxib 2 mg/kg group n=60): 1 (1.7)
Emesis and nausea: Duration range (canine osteoarthritis; Enflicoxib 2 mg/kg group n=60, upper end one animal): 1 to 6 days
Number of animals presenting AEs (%): Emesis or nausea (canine osteoarthritis; Enflicoxib 4 mg/kg group n=61): 7 (11.5)
Emesis and nausea: Number of events (canine osteoarthritis; Enflicoxib 4 mg/kg group n=61): 9
Diarrhoea / pasty stools: Duration range (canine osteoarthritis; Enflicoxib 4 mg/kg group n=61): 1 to 4 days
Diarrhoea / pasty stools: Mean duration (canine osteoarthritis; Enflicoxib 4 mg/kg group n=61): 3 days
Diarrhoea / pasty stools: Number of events (canine osteoarthritis; Enflicoxib 4 mg/kg group n=61): 7
Diarrhoea / pasty stools: Treatment needed (canine osteoarthritis; Enflicoxib 4 mg/kg group n=61): 3
Emesis and nausea: Duration range (canine osteoarthritis; Enflicoxib 4 mg/kg group n=61): 1 to 3 days
Emesis and nausea: Mean duration (canine osteoarthritis; Enflicoxib 4 mg/kg group n=61): 1.4 days
Emesis and nausea: Treatment needed (canine osteoarthritis; Enflicoxib 4 mg/kg group n=61): 2
Number of animals presenting AEs (%): Abdominal pain (canine osteoarthritis; Enflicoxib 4 mg/kg group n=61): 0
Number of animals presenting AEs (%): Acute renal failure (canine osteoarthritis; Enflicoxib 4 mg/kg group n=61): 0
Number of animals presenting AEs (%): Apathy (canine osteoarthritis; Enflicoxib 4 mg/kg group n=61): 2 (3.3)
Number of animals presenting AEs (%): Constipation (canine osteoarthritis; Enflicoxib 4 mg/kg group n=61): 0
Number of animals presenting AEs (%): Diarrhoea or pasty stools (canine osteoarthritis; Enflicoxib 4 mg/kg group n=61): 5 (8.2)
Number of animals presenting AEs (%): Increased salivation (canine osteoarthritis; Enflicoxib 4 mg/kg group n=61): 1 (1.6)
Number of animals presenting AEs (%): Polydipsia (canine osteoarthritis; Enflicoxib 4 mg/kg group n=61): 1 (1.6)
Number of animals presenting AEs (%): Total (canine osteoarthritis; Enflicoxib 4 mg/kg group n=61): 12 (19.7)
Number of animals presenting AEs (%): Weight loss (canine osteoarthritis; Enflicoxib 4 mg/kg group n=61): 0
Mean plasma level ([1]; day 44 (2 days after 7th weekly administration), N=75): 491.7 ng/mL and 492 ng/mL
Max plasma level ([1]; day 44, N=75): 1,846.5 ng/mL
Min plasma level ([1]; day 44, N=75): 5.0 ng/mL
Probability (%) concentration < 10 ng/mL ([1]; day 44, N=75): 13.3%
Probability (%) concentration < LOQ ([1]; day 44, N=75): 9.3%
Probability (%) concentration < 10 ng/mL ([1]; day 44, N=75, listed as enflicoxib): 13%
Mean plasma level ([1]; day 93 (premature study termination), N=2): 296.8 ng/mL
Max plasma level ([1]; day 93, N=2): 356.0 ng/mL
Min plasma level ([1]; day 93, N=2): 237.7 ng/mL
Probability (%) concentration < 10 ng/mL ([1]; day 93, N=2): 0.0%
Probability (%) concentration < LOQ ([1]; day 93, N=2): 0.0%
Mean plasma level ([1]; day 189 (trough after 27th weekly administration), N=65): 262.5 ng/mL
Mean plasma level ([1]; day 189 (trough after 27th weekly administration), N=65, listed as enflicoxib): 263 ng/mL
Max plasma level ([1]; day 189, N=65): 1,846.3 ng/mL
Min plasma level ([1]; day 189, N=65): 5.0 ng/mL
Probability (%) concentration < 10 ng/mL ([1]; day 189, N=65): 27.7%
Probability (%) concentration < LOQ ([1]; day 189, N=65): 27.7%
Probability (%) concentration < 10 ng/mL ([1]; day 189, N=65, listed as enflicoxib): 28%
IIV of CL2/F (apparent clearance of irreversible biotransformation to pyrazol metabolite) [2, 4]: 49%
IIV of Lag Time (Tlag) [2, 4]: 68%
IIV of V/F (apparent volume of distribution in the central compartment) [2, 4]: 94%
IIV of absorption rate (ka) [2, 4]: 101%
Residual variability ([2]; log error model, % CV): 34%
Absorption rate (ka), estimate ([2]; parent): 0.220 hr – 1
Lag Time (Tlag), estimate ([2]; parent): 0.249 h
CL1/F = θ5·(WGT/9.9)^0.75, θ5 estimate (apparent clearance to other elimination pathways) [2, 5]: 0.193 L/h
CL2/F = θ6·(WGT/9.9)^0.75, θ6 estimate (apparent clearance of irreversible biotransformation to pyrazol metabolite) [2, 5]: 0.520 L/h
V/F = θ4·(WGT/9.9)^1.0, θ4 estimate (apparent volume of distribution, central compartment) [2, 5]: 6.59 L
Incidence and type of adverse events over time (dogs with OA): no tendency to increase over time
Hematological and biochemical parameters (dogs with OA; days 44 and 189): generally within the reference ranges
mean terminal elimination half-life (t 1/2) ([3]; Beagle dogs, oral): 20 h
Effect of food on absorption [3]: food increases absorption
Tolerability in overdose study (Beagle dogs; 3 times the recommended dose (12 mg/kg) for 7 months): well-tolerated
Tolerability in overdose study (Beagle dogs; 5 times the recommended dose (20 mg/kg) for 3 months): well-tolerated
